According to patent publication EP1897937A1, “Method of culturing NPCs” (NeuroProgen GmbH Leipzig, priority 2006, dated 2008):

Tests used:
hmNPCs [1] = experiment: Short-term proliferation: Ki67/nestin immunostaining; format: cell-based, human; settings: Homo sapiens, 120 h, 1 µM, 5 subsequent days
Description: To determine long-term proliferation, […] were plated and expanded for 2 passages with or without addition of various agents (see below) to the custom expansion media containing the growth factors EGF and FGF2. Different fetal midbrain tissues were included in this study. At the end of the proliferation period, differentiation of […] was induced via replacement of expansion media with mitogen-free media containing 1% FCS, 5 μM forskoline (Sigma-Aldrich Chemie GmbH Munich, Germany), and 100 pg/ml IL-1β (Sigma). The differentiation and expansion media were supplemented with different drugs as appropriate. Prior to immunocytochemistry or protein extraction, […] were allowed to differentiate for 1 week. To determine short-term proliferation via Ki67 immunostaining, the cells were seeded into 24-well plates (70,000 cells/well) and left overnight to rest. P2 receptor agonists (ATP, UTP, ATP + UTP, ADP, ADPβS) were supplied daily for 5 consecutive days. Ki67/nestin double-positive cells were counted in 8 randomly selected fields of nucleotide-treated or untreated samples. For the assessment of MAPK phosphorylation the cells were kept free of mitogens for 2 d prior to addition of the MEK-inhibitor in expansion media. In addition, the MEK-inhibitor was added during the differentiation period 15 min before UTP administration. […] Cover-slips were mounted onto glass slides and examined under a fluorescence microscope (Zeiss Axiovert 200). Acquisition of the cells was performed using the Image-analysis software AxioVision 4 (Carl Zeiss AG, Jena, Germany). The following primary antibodies were used for immunofluorescence: rabbit polyclonal anti-β-tubulin III (anti-Tuj1) antibody, rabbit polyclonal anti-tyrosine hydroxylase antibody , mouse monoclonal anti-nestin antibody (Pharmingen, San Diego, CA, USA), rabbit polyclonal anti-Ki67 antigen antibody (Novocastra Laboratories Ltd, Newcastle upon Tyne, UK). Estimation of the TH-positive cell numbers was performed by counting of cells among approximately 1000 differentiated cells in total within 6 randomly selected fields.

hmNPCs [2] = experiment: Western blot of proliferation marker PCNA and survival marker Bcl-2; format: cell-based, human; settings: 2 weeks
Description: To determine long-term proliferation, hmNPCs were plated and expanded for 2 passages with or without addition of various agents (see below) to the custom expansion media containing the growth factors EGF and FGF2. Different fetal midbrain tissues were included in this study. At the end of the proliferation period, differentiation of hmNPCs was induced via replacement of expansion media with mitogen-free media containing 1% FCS, 5 µM forskoline (Sigma-Aldrich Chemie GmbH Munich, Germany), and 100 pg/ml IL-1β (Sigma). The differentiation and expansion media were supplemented with different drugs as appropriate. Prior to immunocytochemistry or protein extraction, hmNPCs were allowed to differentiate for 1 week. To determine short-term proliferation via Ki67 immunostaining, the cells were seeded into 24-well plates (70,000 cells/well) and left overnight to rest. P2 receptor agonists (ATP, UTP, ATP + UTP, ADP, ADPβS) were supplied daily for 5 consecutive days. Ki67/nestin double-positive cells were counted in 8 randomly selected fields of nucleotide-treated or untreated samples. For the assessment of MAPK phosphorylation the cells were kept free of mitogens for 2 d prior to addition of the MEK-inhibitor in expansion media. In addition, the MEK-inhibitor was added during the differentiation period 15 min before UTP administration.
In order to prepare protein extracts, hmNPCs were collected, washed with ice-cold PBS and lysed in buffer [10 mM HEPES-KOH (pH 7.9), 10 mM KCI, 1.5 mM MgCl2, 0.1% NP-40], supplemented with protease inhibitor cocktail (Roche). After a brief centrifugation at 4°C/10 000×g, protein concentrations and protein yield from extracts were determined using the Bradford method (Bio-Rad, Hercules, CA, USA). To preserve the phosphorylation state of proteins, extracts for the MAPK experiment were obtained using the PhosphoSafe™ extraction reagent containing phophatase inhibitors (Novagen). […] The chemiluminescence was quantified using the AIDA, two-dimensional densitometry software (Raytest lsotopenmeb, Straubenhardt, Germany). […]

`O=c1ccn([C@@H]2O[C@H](COP(=O)(O)OP(=O)(O)OP(=O)(O)O)[C@@H](O)[C@H]2O)c(=O)[nH]1` [UTP, uridine 5'-triphosphate] was tested, and the activity at 1 µM (hmNPCs [1]; read-out: NPCs double-immunoreactive for Ki67 and nestin) was 193 ± 3%, the activity at 1 µM (hmNPCs [1]; read-out: cells immunoreactive for nestin alone) was 188 ± 2% and the activity at 1 µM (hmNPCs [2]; Homo sapiens, 336 h, 1 µM, read-out: expression of the proliferation marker PCNA compared to control cells) was 330 ± 23%. For the same compound, the “expression of the survival marker Bcl-2” value (hmNPCs [2]; increasing UTP concentrations) was “did not significantly change”.
